Assay results from the supplement of paper PMC10627819.

How the values were obtained:
[1] = system: S. aureus DSM 20231; experiment: fitness (endpoint OD595 vs no drug) (fraction); higher = more growth
How it was run: (§1)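 Fitness was defined as the optical density at the transition into stationary phase relative to the robust mean of no-drug control wells. Values were capped at 1. Cultures were started at OD595 0.01 in 384-well plates (30 µl, or 55 µl for S. pneumoniae) in TSB, LB Lennox or CY at 37 °C. OD595 was recorded every 30 min over 14 h, with the first reading subtracted as background.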

[2] = system: S. pneumoniae D39V; experiment: as above
How it was run: as §1

[3] = system: B. subtilis 168; experiment: Bliss interaction score (quartile over a dose matrix) (fitness difference); higher = more antagonism (negative = synergy)
How it was run: (§2)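 Fitness was derived from optical density at entry into stationary phase, divided by the robust mean of the no-drug wells on the same plate. That reading was taken as OD595, and the ratio was capped at 1. Single-drug fitness was inferred from the combination data. The Bliss score, observed fitness minus the expected product of single-drug fitness, was summarised as quartiles over technical, biological and donor/recipient replicates.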

[4] = system: S. aureus DSM 20231; experiment: as above
How it was run: as §2

[5] = system: S. aureus Newman; experiment: as above
How it was run: as §2

[6] = system: S. pneumoniae D39V; experiment: as above
How it was run: as §2

[7] = system: B. subtilis 168; experiment: fitness (endpoint OD595 vs no drug) (fraction); higher = more growth
How it was run: as §1
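For Bliss interaction score (quartile over a dose matrix) in this document: first quartile when negative (synergy) and third quartile when positive (antagonism).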

CO/N=C(\C(=O)N[C@@H]1C(=O)N2C(C(=O)[O-])=C(C[N+]3(C)CCCC3)CS[C@H]12)c1csc(N)n1 [Cefepime] + CCC[C@@H]1C[C@@H](C(=O)N[C@@H]([C@H]2O[C@H](SC)[C@H](O)[C@@H](O)[C@H]2O)[C@@H](C)O)N(C)C1 [Lincomycin]
Conditions	fitness
[1], first compound 0.125 µg/mL, partner 0.1 µg/mL	0.877
[1], first compound 0.125 µg/mL, partner 0.2 µg/mL	0.876
[1], first compound 0.25 µg/mL, partner 0.1 µg/mL	0.939
[1], first compound 0.25 µg/mL, partner 0.2 µg/mL	0.908
[1], first compound 0.5 µg/mL, partner 0.1 µg/mL	0.906
[1], first compound 0.5 µg/mL, partner 0.2 µg/mL	0.835
[2], first compound 0.007 µg/mL, partner 0.2 µg/mL	0.734
[2], first compound 0.007 µg/mL, partner 0.4 µg/mL	0.521
[2], first compound 0.007 µg/mL, partner 0.8 µg/mL	0.198
[2], first compound 0.0078 µg/mL, partner 0.215 µg/mL	0.909
[2], first compound 0.0078 µg/mL, partner 0.43 µg/mL	0.823
[2], first compound 0.0078 µg/mL, partner 0.86 µg/mL	0.593
[2], first compound 0.014 µg/mL, partner 0.2 µg/mL	0.729
[2], first compound 0.014 µg/mL, partner 0.4 µg/mL	0.523
[2], first compound 0.014 µg/mL, partner 0.8 µg/mL	0.185
[2], first compound 0.0155 µg/mL, partner 0.215 µg/mL	0.878
[2], first compound 0.0155 µg/mL, partner 0.43 µg/mL	0.821
[2], first compound 0.0155 µg/mL, partner 0.86 µg/mL	0.514
[2], first compound 0.028 µg/mL, partner 0.2 µg/mL	0.674
[2], first compound 0.028 µg/mL, partner 0.4 µg/mL	0.458
[2], first compound 0.028 µg/mL, partner 0.8 µg/mL	0.133
[2], first compound 0.031 µg/mL, partner 0.215 µg/mL	0.82
[2], first compound 0.031 µg/mL, partner 0.43 µg/mL	0.723
[2], first compound 0.031 µg/mL, partner 0.86 µg/mL	0.323

Conditions	Bliss interaction score
[3]	-0.0344
[4]	0.188
[5]	0.0822
[6]	0.2

CO/N=C(\C(=O)N[C@@H]1C(=O)N2C(C(=O)[O-])=C(C[N+]3(C)CCCC3)CS[C@H]12)c1csc(N)n1 [Cefepime] + COc1cc(Cc2cnc(N)nc2N)cc(OC)c1OC [Trimethoprim]
fitness, [1]
Conditions	partner 0.125 µg/mL	partner 0.25 µg/mL	partner 0.5 µg/mL	partner 1 µg/mL
first compound 0.125 µg/mL	0.629	0.556	0.272	0.0708
first compound 0.25 µg/mL	0.631	0.573	–	0.0608
first compound 0.5 µg/mL	0.679	0.612	–	0.0509

Conditions	Bliss interaction score
[3]	0.0732
[4]	0.0714
[5]	0.0778
[6]	0.255

CN(C)C(=O)C(CCN1CCC(O)(c2ccc(Cl)cc2)CC1)(c1ccccc1)c1ccccc1 [Loperamide] + CCC(C)C1C(=O)NC(=C)C(=O)NC(C(=O)NC(CSCC(C(=O)N1)NC(=O)/C(=C/C)/NC(=O)C(C(C)CC)N)C(=O)NC2C(SCC(NC(=O)CNC(=O)C3CCCN3C2=O)C(=O)NC(CCCCN)C(=O)NC4C(SCC(NC(=O)CNC(=O)C(NC(=O)C(NC(=O)C(NC(=O)CNC4=O)C)CC(C)C)CCSC)C(=O)NC(CC(=O)N)C(=O)NC(CCSC)C(=O)NC(CCCCN)C(=O)NC5C(SCC6C(=O)NC(C(=O)NC(CSC(C(C(=O)N6)NC(=O)C(NC5=O)C)C)C(=O)NC(CO)C(=O)NC(C(C)CC)C(=O)NC(CC7=CN=CN7)C(=O)NC(C(C)C)C(=O)NC(=C)C(=O)NC(CCCCN)C(=O)O)CC8=CN=CN8)C)C)C)CC(C)C [Nisin]
fitness, one replicate, main component drawn
Conditions	first compound 25 µg/mL	first compound 50 µg/mL	first compound 68.57 µg/mL	first compound 100 µg/mL
[2], partner 1.6 µg/mL	–	–	0.001	–
[2], partner 3.2 µg/mL	–	–	0	–
[2], partner 6.4 µg/mL	–	–	0	–
[7], partner 0.5 µg/mL	0.435	0.0779	–	0.108
[7], partner 1 µg/mL	0.11	0.0703	–	0.0347
[7], partner 1.25 µg/mL	0.204	0.0476	–	0.0457
[7], partner 1.6 µg/mL	0.1	0.0166	–	0.0155
[7], partner 2 µg/mL	0.088	0.0708	–	0.0438
[7], partner 2.5 µg/mL	0.0567	0.0575	–	0.0577
[7], partner 3.2 µg/mL	0.0289	0.0291	–	0.0362
[7], partner 4 µg/mL	0.0315	0.0232	–	0.0127
[7], partner 5 µg/mL	0.0493	0.0332	–	0.0475
[7], partner 6.4 µg/mL	0.035	0.0454	–	0.077
[7], partner 8 µg/mL	0.0084	0.0257	–	0.0094
[7], partner 16 µg/mL	0.0263	0.037	–	0.0142

[2], main component drawn
Conditions	fitness
first compound 17.14 µg/mL, partner 1.6 µg/mL	0.0272
first compound 17.14 µg/mL, partner 3.2 µg/mL	0.0109
first compound 17.14 µg/mL, partner 6.4 µg/mL	0.0062
first compound 20 µg/mL, partner 0.4275 µg/mL	0.827
first compound 20 µg/mL, partner 1.71 µg/mL	0.063
first compound 34.28 µg/mL, partner 1.6 µg/mL	0.0162
first compound 34.28 µg/mL, partner 3.2 µg/mL	0
first compound 34.28 µg/mL, partner 6.4 µg/mL	0.0091
first compound 40 µg/mL, partner 0.4275 µg/mL	0.145
first compound 40 µg/mL, partner 0.855 µg/mL	0.0969
first compound 40 µg/mL, partner 1.71 µg/mL	0.0997
first compound 80 µg/mL, partner 0.4275 µg/mL	0.0928
first compound 80 µg/mL, partner 0.855 µg/mL	0.073
first compound 80 µg/mL, partner 1.71 µg/mL	0.102

main component drawn
Conditions	Bliss interaction score
[3]	-0.126
[4]	-0.423
[5]	-0.076
[6]	-0.175

CN(C)C(=O)C(CCN1CCC(O)(c2ccc(Cl)cc2)CC1)(c1ccccc1)c1ccccc1 [Loperamide] + CCN(CC)CCOC(=O)c1ccc(N)cc1 [Procaine]
fitness
Conditions	partner 85.5 µg/mL	partner 171 µg/mL	partner 342 µg/mL
[2], first compound 17.14 µg/mL	0.941	0.905	0.903
[2], first compound 34.28 µg/mL	0.97	0.853	0.923
[7], first compound 25 µg/mL	0.801	0.84	0.763
[7], first compound 50 µg/mL	0.0504	0.0536	0.051
[7], first compound 100 µg/mL	0.0164	0.016	0.052

fitness, [2], one replicate
Conditions	first compound 20 µg/mL	first compound 40 µg/mL	first compound 68.57 µg/mL	first compound 80 µg/mL
partner 85.5 µg/mL	≥ 1	≥ 1	0.919	0.999
partner 171 µg/mL	≥ 1	≥ 1	0.874	≥ 1
partner 342 µg/mL	≥ 1	0.986	0.88	≥ 1

Conditions	Bliss interaction score
[3]	-0.0865
[4]	0.127
[5]	0.0372
[6]	-0.0548

CN(C)C(=O)C(CCN1CCC(O)(c2ccc(Cl)cc2)CC1)(c1ccccc1)c1ccccc1 [Loperamide] + CN1C2=CC=CC=C2N=C3C1=CC=CC3=O [Pyocyanin]
Conditions	fitness
[2], first compound 17.14 µg/mL, partner 0.325 µg/mL	≥ 1
[2], first compound 17.14 µg/mL, partner 0.65 µg/mL	0.984
[2], first compound 17.14 µg/mL, partner 1.3 µg/mL	0.797
[2], first compound 34.28 µg/mL, partner 0.325 µg/mL	0.993
[2], first compound 34.28 µg/mL, partner 0.65 µg/mL	0.945
[2], first compound 34.28 µg/mL, partner 1.3 µg/mL	0.729
[7], first compound 25 µg/mL, partner 1.25 µg/mL	0.819
[7], first compound 25 µg/mL, partner 2.5 µg/mL	0.78
[7], first compound 25 µg/mL, partner 5 µg/mL	0.632
[7], first compound 50 µg/mL, partner 5 µg/mL	0.215
[7], first compound 100 µg/mL, partner 1.25 µg/mL	0.062
[7], first compound 100 µg/mL, partner 2.5 µg/mL	0.0311
[7], first compound 100 µg/mL, partner 5 µg/mL	0.0308

fitness, [2], one replicate
Conditions	first compound 20 µg/mL	first compound 40 µg/mL	first compound 68.57 µg/mL	first compound 80 µg/mL
partner 0.325 µg/mL	≥ 1	≥ 1	≥ 1	≥ 1
partner 0.65 µg/mL	≥ 1	≥ 1	0.964	0.995
partner 1.3 µg/mL	–	–	0.748	–

Conditions	Bliss interaction score
[3]	0.103
[4]	-0.0519
[5]	-0.0463
[6]	0.0757
